Laboratory results as given in ChEMBL document CHEMBL1201862, “PubChem BioAssay data set” (2004).
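Growth conditions: 96-well plates. Treatment: test compound, 48 hours, 5 concentrations. Analysis: linear interpolation between bracketing concentrations; unreached endpoints set to highest concentration. GI50 = concentration required for 50% inhibition of growth.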 Active and inactive are the calls of the source. Cut-off read from the data, not from the text of the source: active = GI50 up to about 1.1 µM and inactive = higher.

Experiments:
Test in all cases: DTP human tumour cell line panel, 48 h
SNB-19 = tested on: SNB-19
SK-MEL-5 = tested on: SK-MEL-5
HT-29 = tested on: HT-29
SK-OV-3 = tested on: SK-OV-3
OVCAR-3 = tested on: OVCAR-3
OVCAR-5 = tested on: OVCAR-5
Hs-578T = tested on: Hs-578T
OVCAR-4 = tested on: OVCAR-4
M14 = tested on: M14
SW-620 = tested on: SW-620
NCI-H23 = tested on: NCI-H23
Malme-3M = tested on: Malme-3M
PC-3 = tested on: PC-3
U-251 = tested on: U-251
MDA-MB-231 = tested on: MDA-MB-231
SNB-75 = tested on: SNB-75
SF-295 = tested on: SF-295
UO-31 = tested on: UO-31
SF-539 = tested on: SF-539
T47D = tested on: T47D
MOLT-4 = tested on: MOLT-4
786-0 = tested on: 786-0
MDA-MB-435 = tested on: MDA-MB-435
MCF7 = tested on: MCF7
CCRF-CEM = tested on: CCRF-CEM
HCT-15 = tested on: HCT-15
NCI/ADR-RES = tested on: NCI/ADR-RES
HCC 2998 = tested on: HCC 2998
MDA-N = tested on: MDA-N
OVCAR-8 = tested on: OVCAR-8
HCT-116 = tested on: HCT-116
EKVX = tested on: EKVX
LOX IMVI = tested on: LOX IMVI
NCI-H226 = tested on: NCI-H226
KM12 = tested on: KM12
SN12C = tested on: SN12C
DU-145 = tested on: DU-145
RXF 393 = tested on: RXF 393
NCI-H460 = tested on: NCI-H460
IGROV-1 = tested on: IGROV-1
NCI-H522 = tested on: NCI-H522
CAKI-1 = tested on: CAKI-1
A549 = tested on: A549
COLO 205 = tested on: COLO 205
UACC-62 = tested on: UACC-62
ACHN = tested on: ACHN
SK-MEL-28 = tested on: SK-MEL-28
UACC-257 = tested on: UACC-257
K562 = tested on: K562
HOP-92 = tested on: HOP-92
SF-268 = tested on: SF-268
TK-10 = tested on: TK-10
BT-549 = tested on: BT-549
HOP-62 = tested on: HOP-62
RPMI-8226 = tested on: RPMI-8226
A498 = tested on: A498
SK-MEL-2 = tested on: SK-MEL-2
HL-60 = tested on: HL-60

COc1cc2c(cc1OC)CN1CCCc3cc(OC)c(OC)cc3C1C2 (stereo not given)
GI50 (SNB-19): 36.9 µM (inactive)
GI50 (SK-MEL-5): 36.1 µM (inactive)
GI50 (HT-29): 19.6 µM (inactive)
GI50 (SK-OV-3): 63.4 µM (inactive)
GI50 (OVCAR-3): 39.3 µM (inactive)
GI50 (OVCAR-5): 51.3 µM (inactive)
GI50 (Hs-578T): 40.8 µM (inactive)
GI50 (OVCAR-4): 62.4 µM (inactive)
GI50 (M14): 40.6 µM (inactive)
GI50 (SW-620): 30.5 µM (inactive)
GI50 (NCI-H23): 52.4 µM (inactive)
GI50 (Malme-3M): 30.3 µM (inactive)
GI50 (PC-3): 39.8 µM (inactive)
GI50 (U-251): 36.6 µM (inactive)
GI50 (MDA-MB-231): 56.5 µM (inactive)
GI50 (SNB-75): 13.2 µM (inactive)
GI50 (SF-295): 12.9 µM (inactive)
GI50 (UO-31): 43.1 µM (inactive)
GI50 (SF-539): 24.3 µM (inactive)
GI50 (T47D): 22.9 µM (inactive)
GI50 (MOLT-4): 88.1 µM (inactive)
GI50 (786-0): 33.2 µM (inactive)
GI50 (MDA-MB-435): 18.1 µM (inactive)
GI50 (MCF7): 31 µM (inactive)
GI50 (CCRF-CEM): 48.9 µM (inactive)
GI50 (HCT-15): 41.6 µM
GI50 (NCI/ADR-RES): > 100 µM (inactive)
GI50 (HCC 2998): 33.7 µM (inactive)
GI50 (MDA-N): 17.3 µM (inactive)
GI50 (OVCAR-8): 57.7 µM (inactive)
GI50 (HCT-116): 23.1 µM (inactive)
GI50 (EKVX): 44 µM (inactive)
GI50 (LOX IMVI): 25.4 µM (inactive)
GI50 (NCI-H226): 27.9 µM (inactive)
GI50 (KM12): 50 µM (inactive)
GI50 (SN12C): 42.7 µM (inactive)
GI50 (DU-145): 76 µM (inactive)
GI50 (RXF 393): 29.6 µM (inactive)
GI50 (NCI-H460): 31.4 µM (inactive)
GI50 (IGROV-1): 22 µM (inactive)
GI50 (NCI-H522): 29.4 µM (inactive)
GI50 (CAKI-1): 38.6 µM (inactive)
GI50 (A549): 55 µM (inactive)
GI50 (COLO 205): 40.9 µM (inactive)
GI50 (UACC-62): 29.6 µM (inactive)
GI50 (ACHN): 34.1 µM (inactive)
GI50 (SK-MEL-28): 32 µM (inactive)
GI50 (UACC-257): 67.5 µM (inactive)
GI50 (K562): 48.3 µM (inactive)
GI50 (HOP-92): 21.4 µM (inactive)
GI50 (SF-268): 61 µM (inactive)
GI50 (TK-10): 51.4 µM (inactive)
GI50 (BT-549): 99.3 µM (inactive)
GI50 (HOP-62): 25 µM (inactive)

COc1c(/C=C/C(C)(C)O)cc(C2CC(=O)c3c(O)cc(O)cc3O2)cc1CC=C(C)C (stereo not given)
GI50 (SNB-19): 10.6 µM (inactive)
GI50 (SK-MEL-5): 8.47 µM (inactive)
GI50 (HT-29): 8.91 µM (inactive)
GI50 (SK-OV-3): 7.83 µM (inactive)
GI50 (OVCAR-5): 9.14 µM (inactive)
GI50 (Hs-578T): 10.7 µM (inactive)
GI50 (OVCAR-4): 10.4 µM (inactive)
GI50 (M14): 8.45 µM (inactive)
GI50 (RPMI-8226): 10.8 µM (inactive)
GI50 (SW-620): 17.3 µM (inactive)
GI50 (NCI-H23): 9.02 µM (inactive)
GI50 (Malme-3M): 10.1 µM (inactive)
GI50 (PC-3): 8.53 µM (inactive)
GI50 (U-251): 7.71 µM (inactive)
GI50 (MDA-MB-231): 8.22 µM (inactive)
GI50 (A498): 9.48 µM (inactive)
GI50 (SNB-75): 9.86 µM (inactive)
GI50 (SF-295): 7.26 µM (inactive)
GI50 (UO-31): 0.762 µM (active)
GI50 (SF-539): 9.4 µM (inactive)
GI50 (T47D): 11 µM (inactive)
GI50 (MOLT-4): 11.7 µM (inactive)
GI50 (786-0): 9.57 µM (inactive)
GI50 (SK-MEL-2): 8.61 µM (inactive)
GI50 (MDA-MB-435): 8.02 µM (inactive)
GI50 (MCF7): 8.51 µM (inactive)
GI50 (CCRF-CEM): 13.2 µM (inactive)
GI50 (HCT-15): 8.2 µM
GI50 (NCI/ADR-RES): 12.1 µM (inactive)
GI50 (HCC 2998): 2.36 µM (inactive)
GI50 (MDA-N): 9.53 µM (inactive)
GI50 (OVCAR-8): 10.8 µM (inactive)
GI50 (HCT-116): 9.14 µM (inactive)
GI50 (LOX IMVI): 4.44 µM (inactive)
GI50 (NCI-H226): 9.71 µM (inactive)
GI50 (KM12): 10.4 µM (inactive)
GI50 (SN12C): 6.27 µM (inactive)
GI50 (DU-145): 9.06 µM (inactive)
GI50 (RXF 393): 7.91 µM (inactive)
GI50 (NCI-H460): 8.73 µM (inactive)
GI50 (NCI-H522): 9.27 µM (inactive)
GI50 (CAKI-1): 16 µM (inactive)
GI50 (A549): 9.75 µM (inactive)
GI50 (COLO 205): 9.35 µM (inactive)
GI50 (UACC-62): 6.79 µM (inactive)
GI50 (ACHN): 7.6 µM (inactive)
GI50 (SK-MEL-28): 13.2 µM (inactive)
GI50 (UACC-257): 8.3 µM (inactive)
GI50 (K562): 10.7 µM (inactive)
GI50 (HOP-92): 10.3 µM (inactive)
GI50 (SF-268): 9.04 µM (inactive)
GI50 (TK-10): 8.67 µM (inactive)
GI50 (BT-549): 8.49 µM (inactive)
GI50 (HL-60): 12.8 µM (inactive)

COc1cc(O)c2c(=O)c3c(C)cccc3n(C)c2c1
GI50 (SNB-19): > 10 µM (inactive)
GI50 (SK-MEL-5): > 10 µM (inactive)
GI50 (HT-29): > 10 µM (inactive)
GI50 (SK-OV-3): > 10 µM (inactive)
GI50 (OVCAR-3): > 10 µM (inactive)
GI50 (OVCAR-5): > 10 µM (inactive)
GI50 (Hs-578T): > 10 µM (inactive)
GI50 (OVCAR-4): > 10 µM (inactive)
GI50 (M14): > 10 µM (inactive)
GI50 (RPMI-8226): > 10 µM (inactive)
GI50 (SW-620): > 10 µM (inactive)
GI50 (NCI-H23): > 10 µM (inactive)
GI50 (Malme-3M): > 10 µM (inactive)
GI50 (PC-3): > 10 µM (inactive)
GI50 (U-251): > 10 µM (inactive)
GI50 (MDA-MB-231): > 10 µM (inactive)
GI50 (A498): > 10 µM (inactive)
GI50 (SNB-75): > 10 µM (inactive)
GI50 (SF-295): > 10 µM (inactive)
GI50 (UO-31): > 10 µM (inactive)
GI50 (SF-539): > 10 µM (inactive)
GI50 (T47D): > 10 µM (inactive)
GI50 (MOLT-4): > 10 µM (inactive)
GI50 (786-0): > 10 µM (inactive)
GI50 (SK-MEL-2): > 10 µM (inactive)
GI50 (MDA-MB-435): > 10 µM (inactive)
GI50 (MCF7): > 10 µM (inactive)
GI50 (CCRF-CEM): > 10 µM (inactive)
GI50 (HCT-15): > 10 µM
GI50 (NCI/ADR-RES): > 10 µM (inactive)
GI50 (HCC 2998): > 10 µM (inactive)
GI50 (MDA-N): > 10 µM (inactive)
GI50 (OVCAR-8): > 10 µM (inactive)
GI50 (HCT-116): > 10 µM (inactive)
GI50 (EKVX): 4.17 µM (inactive)
GI50 (LOX IMVI): > 10 µM (inactive)
GI50 (NCI-H226): > 10 µM (inactive)
GI50 (KM12): > 10 µM (inactive)
GI50 (SN12C): > 10 µM (inactive)
GI50 (DU-145): > 10 µM (inactive)
GI50 (RXF 393): > 10 µM (inactive)
GI50 (NCI-H460): > 10 µM (inactive)
GI50 (IGROV-1): > 10 µM (inactive)
GI50 (NCI-H522): > 10 µM (inactive)
GI50 (CAKI-1): > 10 µM (inactive)
GI50 (A549): > 10 µM (inactive)
GI50 (COLO 205): > 10 µM (inactive)
GI50 (UACC-62): > 10 µM (inactive)
GI50 (ACHN): > 10 µM (inactive)
GI50 (SK-MEL-28): > 10 µM (inactive)
GI50 (UACC-257): > 10 µM (inactive)
GI50 (K562): > 10 µM (inactive)
GI50 (HOP-92): > 10 µM (inactive)
GI50 (SF-268): > 10 µM (inactive)
GI50 (TK-10): > 10 µM (inactive)
GI50 (BT-549): > 10 µM (inactive)
GI50 (HOP-62): > 10 µM (inactive)
